For this experiment, the target named is T1, full length human recombinant glucocorticoid receptor (Homo sapiens, UniProt P04150).
T1 construct: It contains some partially purified full length human recombinant glucocorticoid receptor; purchased Panvera/Invitrogen PV4302
T1 sequence (P04150 1-777): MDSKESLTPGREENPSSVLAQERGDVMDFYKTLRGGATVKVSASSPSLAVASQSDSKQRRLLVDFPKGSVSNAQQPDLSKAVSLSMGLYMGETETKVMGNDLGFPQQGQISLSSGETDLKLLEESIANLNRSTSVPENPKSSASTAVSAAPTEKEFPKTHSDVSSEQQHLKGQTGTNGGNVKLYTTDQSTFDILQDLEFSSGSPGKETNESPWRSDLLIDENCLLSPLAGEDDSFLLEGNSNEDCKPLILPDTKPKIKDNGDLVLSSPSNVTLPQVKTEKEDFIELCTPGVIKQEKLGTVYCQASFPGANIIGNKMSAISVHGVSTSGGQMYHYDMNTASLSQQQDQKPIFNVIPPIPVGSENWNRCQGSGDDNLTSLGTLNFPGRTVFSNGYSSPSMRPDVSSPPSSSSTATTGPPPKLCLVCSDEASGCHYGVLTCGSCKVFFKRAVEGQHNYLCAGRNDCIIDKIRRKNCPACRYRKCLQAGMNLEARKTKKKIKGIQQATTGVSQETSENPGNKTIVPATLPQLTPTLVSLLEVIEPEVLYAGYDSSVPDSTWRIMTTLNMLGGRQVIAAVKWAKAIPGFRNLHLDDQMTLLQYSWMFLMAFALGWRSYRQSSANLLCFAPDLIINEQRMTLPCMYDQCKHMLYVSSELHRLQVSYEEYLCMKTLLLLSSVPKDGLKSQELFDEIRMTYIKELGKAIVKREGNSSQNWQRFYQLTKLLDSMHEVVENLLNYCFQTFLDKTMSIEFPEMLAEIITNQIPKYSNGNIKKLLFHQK
Description: Glucocorticoid Receptor Binding Assay (Glucocorticoid Receptor Competitor Assay far red kit, fluorescence polarization). As to conditions: competition with fluorescent GR ligand Fluormone GS Far Red, 3 hours at 22° C., pH 7.4; Ki calculated from IC50 by Cheng-Prusoff. In short, it runs like this: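 Fluorescence polarization competition with partially purified full-length human recombinant GR, stabilizing peptide and Fluormone GS Far Red tracer in screening buffer pH 7.4; 3 hours at 22° C in the dark, read at 610–660 nm. IC50 from sigmoidal fit; Ki by Cheng-Prusoff.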

As a reminder, the Ki is the dissociation constant of the complex between target and ligand, obtained from inhibition or displacement.

As to `C[C@H](c1ccc(Br)cc1C(F)(F)F)[C@@](O)(c1ccc2oc(=O)n(C)c2c1)C(F)(F)F` (relative stereo) [Example 193, 5-[2-(4-Bromo-2-trifluoromethyl-phenyl)-1-hydroxy-1-trifluoromethyl-propyl]-3-methyl-3H-benzooxazol-2-one], the Ki was 0.9 nM. With `COC(=O)c1ccc(Oc2ccc([C@@H](C)[C@@](O)(c3ccc4c(c3)N(C)C(=O)CO4)C(F)(F)F)c(Cl)c2)cc1Cl` (single isomer, unassigned) [Example 216], the Ki was 60.2 nM. Consider `C[C@H](c1ccc(Oc2ccc(C(=O)O)c(Cl)c2)cc1Cl)[C@](O)(c1ccc2c(c1)OCO2)C(F)(F)F` (relative stereo) [Example 103, 4-[4-(2-Benzo[1,3]dioxol-5-yl-3,3,3-trifluoro-2-hydroxy-1-methyl-propyl)-3-chloro-phenoxy]-2-chloro-benzoic acid], for which the Ki is 23.1 nM. Turning to `COC(=O)c1ccc(-c2ccc([C@@H](C)[C@@](O)(c3ccc4oc(=O)n(C)c4c3)C(F)(F)F)c(C(F)(F)F)c2)cc1F` (relative stereo) [Example 198, 3-Fluoro-4′-[3,3,3-trifluoro-2-hydroxy-1-methyl-2-(3-methyl-2-oxo-2,3-dihydro-benzooxazol-5-yl)-propyl]-3′-trifluoromethyl-biphenyl-4-carboxylic acid methyl ester], the Ki is 1.7 nM.

Regarding `C[C@H](c1ccc(-c2cccc(C(=O)O)c2)cc1Cl)[C@@](O)(c1ccc2c(c1)oc(=O)n2C)C(F)(F)F` (stereo in doubt) [Example 179, 3′-Chloro-4′-[3,3,3-trifluoro-2-hydroxy-1-methyl-2-(3-methyl-2-oxo-2,3-dihydro-benzooxazol-6-yl)-propyl]-biphenyl-3-carboxylic acid], the Ki was 13.3 nM. For the compound `C[C@H](c1ccc(-c2ccc(C(=O)O)c(F)c2)cc1Cl)[C@@](O)(c1ccc2c(c1)N(C)CCO2)C(F)(F)F` (stereo in doubt) [Example 170, 3′-Chloro-3-fluoro-4′-[3,3,3-trifluoro-2-hydroxy-1-methyl-2-(4-methyl-3,4-dihydro-2H-benzo[1,4]oxazin-6-yl)-propyl]-biphenyl-4-carboxylic acid], the Ki is 210 nM. For the compound `C[C@H](c1ccc(-c2ccc(C(=O)O)c(Cl)c2)cc1Cl)[C@@](O)(c1ccc2oc(=O)n(C)c2c1)C(F)(F)F` (relative stereo) [Example 124, 3,3′-Dichloro-4′-[3,3,3-trifluoro-2-hydroxy-1-methyl-2-(3-methyl-2-oxo-2,3-dihydro-benzooxazol-5-yl)-propyl]-biphenyl-4-carboxylic acid], the Ki is 0.3 nM. As for `C[C@@H](c1cc(Oc2ccc(C(=O)O)c(F)c2)ccc1Cl)[C@](O)(c1ccc2c(c1)N(C)C(=O)CO2)C(F)(F)F` (relative stereo) [Example 14, 4-{4-Chloro-3-[3,3,3-trifluoro-2-hydroxy-1-methyl-2-(4-methyl-3-oxo-3,4-dihydro-2H-benzo[1,4]oxazin-6-yl)-propyl]-phenoxy}-2-fluoro-benzoic acid], the Ki is 3.9 nM. For `C[C@H](c1ccc(Oc2ccc(C(=O)O)c(F)c2)cc1Cl)[C@@](O)(c1ccc2oc(=O)n(C)c2c1)C(F)(F)F` (stereo in doubt) [Example 177, 4-{3-Chloro-4-[3,3,3-trifluoro-2-hydroxy-1-methyl-2-(3-methyl-2-oxo-2,3-dihydro-benzooxazol-5-yl)-propyl]-phenoxy}-2-fluoro-benzoic acid], the Ki was 1.3 nM.

For `C[C@@H](c1ccc(-c2ccc(F)c(C(=O)O)c2)cc1Cl)[C@](O)(c1ccc2c(c1)N(C)C(=O)CO2)C(F)(F)F` (relative stereo) [Example 32, 3′-Chloro-4-fluoro-4′-[3,3,3-trifluoro-2-hydroxy-1-methyl-2-(4-methyl-3-oxo-3,4-dihydro-2H-benzo[1,4]oxazin-6-yl)-propyl]-biphenyl-3-carboxylic acid], the Ki is 1.3 nM.

The values are drawn from US8450313B2, “2,3-diaryl- or heteroaryl-substituted 1,1,1-trifluoro-2-hydroxypropyl compounds” (Hoffmann-La Roche Inc., priority 2009, dated 2013).
